# Experimental data from patent publication US20220054398A1, “USE OF RUBUS FRUTICOSUS EXTRACT FOR MANUFACTURING A SKINCARE COMPOSITION” (TCI CO., LTD., priority 2020, published 2022).
# Tested on: Mouse melanoma cell B16F10
# Experiment: Melanin production after blue light exposure, OD450
# Assay type: cell-based
# Settings: B16F10 cells, 0.25 mg/mL 24 hours, blue light 3 hours, then 48 hours
# Description: The changes in melanin content of melanoma cell line B16F10 after being treated with Rubus fruticosus extract are determined by an ELISA reader (enzyme-linked immunosorbent assay reader). Materials and Instruments: • 1. Cell line: Mouse melanoma cell B16F10, purchased from American Type Culture Collection (ATCC®, No. 6475), hereinafter referred to as B16F10 cells. • 2. Medium: Dulbecco's modified […] (DMEM, purchased from Gibco, Cat. 12100-038) is supplemented with additional ingredients to contain 1 vol % antibiotic solution (Antibiotic Antimycotic Solution, purchased from Gibco, 15240-062) and 10 vol % FBS (fetal bovine Serum, purchased from Gibco, 10437-028). Gibco, 15240-062). • 3. Phosphate Buffer Solution (PBS solution): purchased from Gibco, Product No. […]. • 4. Prepare a solution of 1N NaOH (Sigma, Product No. 221465) in secondary distilled water. • 5. ELISA reader (purchased from BioTek, product number FLx 800). • 6. […] Transfer 100 μL of the sample to be tested into a 96-well plate and measure the absorbance value of the cell solution at 450 nm using an ELISA reader. The relative melanin expressions of the experimental and control groups are calculated according to the following formula: Relative melanin expression (%)=(OD 450 value of each group/OD450 value of the control group)×100%.
smiles,measurement,value
"O=c1cc(CO)occ1O [kojic acid, Kojic acid]",melanin production compared with the control group,67.42%
